The target of one test is T1, Human ASK1 (Homo sapiens, UniProt Q99683).
T1 construct: expressed in transfected cells; host or cells: HEK293T-AP1
T1 sequence (Q99683 1-1374): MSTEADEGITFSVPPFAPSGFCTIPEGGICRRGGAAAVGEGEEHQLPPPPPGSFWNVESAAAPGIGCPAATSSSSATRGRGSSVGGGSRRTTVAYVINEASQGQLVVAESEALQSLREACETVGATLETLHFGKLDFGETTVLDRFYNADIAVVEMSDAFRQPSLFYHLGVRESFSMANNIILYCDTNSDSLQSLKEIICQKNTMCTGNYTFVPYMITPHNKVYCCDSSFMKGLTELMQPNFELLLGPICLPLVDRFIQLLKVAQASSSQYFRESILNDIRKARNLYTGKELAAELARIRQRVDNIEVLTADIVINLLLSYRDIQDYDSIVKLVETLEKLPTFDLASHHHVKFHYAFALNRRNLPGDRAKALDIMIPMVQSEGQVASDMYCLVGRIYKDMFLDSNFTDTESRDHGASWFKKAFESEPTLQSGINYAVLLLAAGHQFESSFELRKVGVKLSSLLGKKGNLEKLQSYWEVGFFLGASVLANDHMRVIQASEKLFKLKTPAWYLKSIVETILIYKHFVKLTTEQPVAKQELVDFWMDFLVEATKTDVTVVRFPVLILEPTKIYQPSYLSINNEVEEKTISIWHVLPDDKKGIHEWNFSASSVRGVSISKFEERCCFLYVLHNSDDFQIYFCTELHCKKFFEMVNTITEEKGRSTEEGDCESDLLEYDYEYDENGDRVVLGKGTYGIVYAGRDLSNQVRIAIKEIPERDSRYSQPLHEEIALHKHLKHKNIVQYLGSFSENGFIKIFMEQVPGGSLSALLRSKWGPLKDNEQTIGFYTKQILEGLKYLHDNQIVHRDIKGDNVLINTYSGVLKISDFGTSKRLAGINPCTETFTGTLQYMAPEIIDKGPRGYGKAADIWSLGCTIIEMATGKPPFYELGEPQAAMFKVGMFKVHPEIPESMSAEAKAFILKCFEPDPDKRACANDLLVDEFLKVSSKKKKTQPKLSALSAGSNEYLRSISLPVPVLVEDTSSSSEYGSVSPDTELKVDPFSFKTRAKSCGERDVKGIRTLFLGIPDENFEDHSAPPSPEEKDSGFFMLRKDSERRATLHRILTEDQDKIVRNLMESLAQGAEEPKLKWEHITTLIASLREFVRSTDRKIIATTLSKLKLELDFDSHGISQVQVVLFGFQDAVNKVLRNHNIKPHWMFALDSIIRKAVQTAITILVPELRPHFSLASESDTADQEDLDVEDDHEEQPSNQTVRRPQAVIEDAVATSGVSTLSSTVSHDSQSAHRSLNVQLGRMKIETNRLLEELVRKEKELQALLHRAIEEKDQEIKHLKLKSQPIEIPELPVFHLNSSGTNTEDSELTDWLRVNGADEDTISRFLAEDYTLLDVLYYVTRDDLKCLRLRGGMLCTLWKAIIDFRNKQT
The experiment in a line: ASK1 Cell Based Assay (phospho p38 read out in hASK1 transfected HEK293T-AP1 cells). To be noted: HEK293T-AP1 cells, 1 mM hydrogen peroxide, phospho p38; read-out: Cell Based Assay IC50. In short, it runs like this:
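HEK293T-AP1 cells transfected with hASK1, after 24 h treated with compounds for 24 h (0.2% DMSO), then stimulated with 1 mM H2O2 for 1 h with compounds present.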

The target in another test is T2, recombinant ASK1 (Homo sapiens, UniProt Q99683).
T2 construct: purchased Carna Biosciences
Nature of the test: ASK1 Biochemical Assay (HTRF KinEASE-STK S3). The settings on record: ATP 100 μM; read-out: Biochemical Assay IC50. In short, it runs like this:
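Recombinant ASK1 (5 ng) preincubated with compound 1 h at 23 °C in MOPS pH 7 buffer with Mg-acetate, DTT, NP40, glycerol, BSA and 1% DMSO. Inhibition calculated against vehicle after substrate-blank subtraction.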

This is an account of results in patent US20220332700A1, “NOVEL APOPTOSIS SIGNAL-REGULATING KINASE 1 INHIBITORS” (MANKIND PHARMA LTD, priority 2019, published 2022).

The structures appear in SMILES notation. Bounds are passed on as bounds.

With `COCCCNc1ccc(N2CCN(c3cccc(-c4nncn4C(C)C)n3)C2=O)cn1` [Example 1118, 1-(6-(3-methoxypropylamino)pyridin-3-yl)-3-(6-(4-isopropyl-4H-1,2,4-triazol-3-yl)pyridin-2-yl)imidazolidin-2-one], the IC50 at Human ASK1 was over 1000 nM; on recombinant ASK1, under 100 nM.

Regarding `CC(C)n1cnnc1-c1cccc(N2CCN(c3ccc(S(C)(=O)=O)s3)C2=O)n1` [Example 1123, 1-(6-(4-isopropyl-4H-1,2,4-triazol-3-yl)pyridin-2-yl)-3-(5-(methylsulfonyl)thiophen-2-yl)imidazolidin-2-one], the IC50 on Human ASK1 was over 1000 nM; at recombinant ASK1 it was over 100 nM.

For the molecule `CC(C)n1cnnc1-c1cccc(N2CCN(c3ccc4c(c3)C(C)(C)CS4(=O)=O)C2=O)n1` [Example 1124, 1-(3,3-dimethyl-1,1-dioxido-2,3-dihydrobenzo[b]thiophen-5-yl)-3-(6-(4-isopropyl-4H-1,2,4-triazol-3-yl)pyridin-2-yl)imidazolidin-2-one], the IC50 was over 1000 nM at Human ASK1 and under 100 nM at recombinant ASK1.

Regarding `CC(C)n1cnnc1-c1cccc(N2CCN(c3ccc4c(ccn4C)c3)C2=O)n1` [Example 1125, 1-(6-(4-isopropyl-4H-1,2,4-triazol-3-yl)pyridin-2-yl)-3-(1-methyl-1H-indol-5-yl)imidazolidin-2-one], the IC50 was over 1000 nM on Human ASK1 and under 100 nM on recombinant ASK1.

With `CC(C)n1cnnc1-c1cccc(N2CCN(c3ccc(OCCS(C)(=O)=O)cc3)C2=O)n1` [Example 1126, 1-(4-(2-(methylsulfonyl)ethoxy)phenyl)-3-(6-(4-isopropyl-4H-1,2,4-triazol-3-yl)pyridin-2-yl)imidazolidin-2-one], the IC50 on Human ASK1 was over 1000 nM; on recombinant ASK1, under 100 nM.

For the molecule `CNC(=O)C1CCN(Cc2ccc(N3CCN(c4cccc(-c5nncn5C(C)C)n4)C3=O)cc2)CC1` [Example 1128, 1-(4-(3-(6-(4-isopropyl-4H-1,2,4-triazol-3-yl)pyridin-2-yl)-2-oxoimidazolidin-1-yl)benzyl)-N-methylpiperidine-4-carboxamide], the figures for the IC50 at Human ASK1 and on recombinant ASK1 were over 1000 nM and under 100 nM, respectively.

Regarding `CC(C)C(c1ccc(N2CCN(c3cccc(-c4nncn4C(C)C)n3)C2=O)cc1)N1CCOCC1` (stereo not shown) [Example 1129, 1-(6-(4-isopropyl-4H-1,2,4-triazol-3-yl)pyridin-2-yl)-3-(4-(2-methyl-1-morpholinopropyl)phenyl)imidazolidin-2-one], the IC50 on Human ASK1 was over 1000 nM; on recombinant ASK1 it was under 100 nM.

On to `CNC(=O)[C@@H]1CCN(c2ccc(N3CCN(c4cccc(-c5nncn5C(C)C)n4)C3=O)cc2)C1` [Example 1130, (R)-1-(4-(3-(6-(4-isopropyl-4H-1,2,4-triazol-3-yl)pyridin-2-yl)-2-oxoimidazolidin-1-yl)phenyl)-N-methylpyrrolidine-3-carboxamide], for which the results for the IC50 on Human ASK1 and at recombinant ASK1 were under 100 nM and under 50 nM, respectively.

For the molecule `CNC(=O)[C@H]1CCN(c2ccc(N3CCN(c4cccc(-c5nncn5C(C)C)n4)C3=O)cc2)C1` [Example 1131, (S)-1-(4-(3-(6-(4-isopropyl-4H-1,2,4-triazol-3-yl)pyridin-2-yl)-2-oxoimidazolidin-1-yl)phenyl)-N-methylpyrrolidine-3-carboxamide], the IC50 on Human ASK1 was 1560 nM; on recombinant ASK1, under 100 nM.

As to `CC(C)n1cnnc1-c1cccc(N2CCN(c3ccc(NC4CCOC4)cc3)C2=O)n1` (stereo not shown) [Example 1133, 1-(6-(4-isopropyl-4H-1,2,4-triazol-3-yl)pyridin-2-yl)-3-(4-(tetrahydrofuran-3-ylamino)phenyl)imidazolidin-2-one], the IC50 at Human ASK1 is over 1000 nM; at recombinant ASK1, under 100 nM.

As for `CC(C)C(C#N)C1CN(c2ccc(N3CCN(c4cccc(-c5nncn5C(C)C)n4)C3=O)cc2)C1` (stereo not shown) [Example 1134, 2-(1-(4-(3-(6-(4-isopropyl-4H-1,2,4-triazol-3-yl)pyridin-2-yl)-2-oxoimidazolidin-1-yl)phenyl)azetidin-3-yl)-3-methylbutanenitrile], the values for the IC50 at Human ASK1 and on recombinant ASK1 were over 1000 nM and under 100 nM, respectively.

For the molecule `CC(C)n1cnnc1-c1cccc(N2CCN(c3ccc(N4CCN(C)C(=O)C4)cc3)C2=O)n1` [Example 1135, 4-(4-(3-(6-(4-isopropyl-4H-1,2,4-triazol-3-yl)pyridin-2-yl)-2-oxoimidazolidin-1-yl)phenyl)-1-methylpiperazin-2-one], the figures for the IC50 on Human ASK1 and on recombinant ASK1 were over 1000 nM and under 100 nM, respectively.

Take `CNC(=O)N1CCN(c2ccc(N3CCN(c4cccc(-c5nncn5C(C)C)n4)C3=O)cc2)CC1` [Example 1136, 4-(4-(3-(6-(4-isopropyl-4H-1,2,4-triazol-3-yl)pyridin-2-yl)-2-oxoimidazolidin-1-yl)phenyl)-N-methylpiperazine-1-carboxamide]: the IC50 at Human ASK1 is over 100 nM; on recombinant ASK1, under 100 nM.

Turning to `CC(C)n1cnnc1-c1cccc(N2CCN(c3ccc(N4CCN(C(=O)CC#N)CC4)cc3)C2=O)n1` [Example 1137, 3-(4-(4-(3-(6-(4-isopropyl-4H-1,2,4-triazol-3-yl)pyridin-2-yl)-2-oxoimidazolidin-1-yl)phenyl)piperazin-1-yl)-3-oxopropanenitrile], the figures for the IC50 at Human ASK1 and at recombinant ASK1 were over 100 nM and under 100 nM, respectively.

`CC(C)n1cnnc1-c1cccc(N2CCN(c3ccc(N4CCC(F)CC4)cc3)C2=O)n1` [Example 1138, 1-(4-(4-fluoropiperidin-1-yl)phenyl)-3-(6-(4-isopropyl-4H-1,2,4-triazol-3-yl)pyridin-2-yl)imidazolidin-2-one]: the IC50 on Human ASK1 was over 100 nM; on recombinant ASK1 it was under 100 nM.

Turning to `CNC1(C2CCN(c3ccc(N4CCN(c5cccc(-c6nncn6C(C)C)n5)C4=O)cc3)CC2)COC1` [Example 1139, 1-(6-(4-isopropyl-4H-1,2,4-triazol-3-yl)pyridin-2-yl)-3-(4-(4-(3-(methylamino)oxetan-3-yl)piperidin-1-yl)phenyl)imidazolidin-2-one], the IC50 was over 100 nM at Human ASK1 and under 100 nM at recombinant ASK1.

In the case of `CNC(=O)C1CC2CCC(C1)N2c1ccc(N2CCN(c3cccc(-c4nncn4C(C)C)n3)C2=O)cc1` (stereo not shown) [Example 1140, 8-(4-(3-(6-(4-isopropyl-4H-1,2,4-triazol-3-yl)pyridin-2-yl)-2-oxoimidazolidin-1-yl)phenyl)-N-methyl-8-aza-bicyclo[3.2.1]octane-3-carboxamide], the IC50 on Human ASK1 is under 100 nM; on recombinant ASK1, under 50 nM.

The term IC50 denotes the concentration at which inhibition is half-maximal.
